The target in assay [1] is Calcium/calmodulin-dependent protein kinase type 1G (Homo sapiens) (UniProt Q96NX5). Description: Inhibition of human CAMK1g using KKALRRQETVDAL as substrate at 1 uM in presence of 32P-ATP by Hotspot assay relative to control; values are per cent of control.
The subject of another assay is Neutrophil. Description: Inhibition of TNF-alpha induced necroptosis in human neutrophil cells assessed as increase in cell viability incubated for 18 hrs in presence of zVAD and SMAC007 by Cell Titer-Glo luminescent cell viability assay. Format: functional, cell-based. For orientation: ATP-based viability assays read luminescence as a measure of living cells.
Assay [2] deals with Serine/threonine-protein kinase 33 (Homo sapiens) (UniProt Q9BYT3). Description: Inhibition of human STK33 using myelin basic protein as substrate at 1 uM in presence of 32P-ATP by Hotspot assay relative to control; values are per cent of control.
Sequence of Serine/threonine-protein kinase 33 (Homo sapiens) (Q9BYT3 whole entry, looked up): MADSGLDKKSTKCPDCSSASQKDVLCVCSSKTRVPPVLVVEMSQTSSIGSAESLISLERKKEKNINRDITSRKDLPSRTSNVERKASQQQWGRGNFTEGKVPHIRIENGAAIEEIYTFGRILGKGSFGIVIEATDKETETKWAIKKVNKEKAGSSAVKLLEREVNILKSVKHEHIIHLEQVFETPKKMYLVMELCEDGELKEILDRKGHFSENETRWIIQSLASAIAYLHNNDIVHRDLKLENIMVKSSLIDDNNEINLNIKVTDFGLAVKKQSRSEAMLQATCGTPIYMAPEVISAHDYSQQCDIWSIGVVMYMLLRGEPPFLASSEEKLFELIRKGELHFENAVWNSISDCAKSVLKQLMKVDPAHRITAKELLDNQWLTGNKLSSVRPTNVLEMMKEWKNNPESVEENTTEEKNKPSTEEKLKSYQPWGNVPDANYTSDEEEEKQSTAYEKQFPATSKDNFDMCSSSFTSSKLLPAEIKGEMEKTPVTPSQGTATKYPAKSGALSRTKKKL
Assay [3] concerns the target T1, Testis-specific serine/threonine-protein kinase 2 (Homo sapiens) (UniProt Q96PF2).
T1 sequence (whole entry): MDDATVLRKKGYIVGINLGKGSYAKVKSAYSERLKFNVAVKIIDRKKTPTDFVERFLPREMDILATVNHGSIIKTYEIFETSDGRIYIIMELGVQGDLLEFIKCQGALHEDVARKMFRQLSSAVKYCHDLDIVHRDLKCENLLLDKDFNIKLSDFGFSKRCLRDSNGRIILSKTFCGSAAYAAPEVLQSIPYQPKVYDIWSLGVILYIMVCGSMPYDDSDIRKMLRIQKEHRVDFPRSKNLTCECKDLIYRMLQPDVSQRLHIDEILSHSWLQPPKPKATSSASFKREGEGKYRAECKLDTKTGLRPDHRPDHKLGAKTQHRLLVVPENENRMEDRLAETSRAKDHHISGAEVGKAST
Description: Inhibition of human TSSK2 using KKKVSRSGLYRSPSMPENLNRPR as substrate at 1 uM in presence of 32P-ATP by Hotspot assay relative to control; values are per cent of control.

Assay [4] deals with T2, Serine/threonine-protein kinase Sgk1 (Homo sapiens) (UniProt O00141).
T2 sequence (whole entry): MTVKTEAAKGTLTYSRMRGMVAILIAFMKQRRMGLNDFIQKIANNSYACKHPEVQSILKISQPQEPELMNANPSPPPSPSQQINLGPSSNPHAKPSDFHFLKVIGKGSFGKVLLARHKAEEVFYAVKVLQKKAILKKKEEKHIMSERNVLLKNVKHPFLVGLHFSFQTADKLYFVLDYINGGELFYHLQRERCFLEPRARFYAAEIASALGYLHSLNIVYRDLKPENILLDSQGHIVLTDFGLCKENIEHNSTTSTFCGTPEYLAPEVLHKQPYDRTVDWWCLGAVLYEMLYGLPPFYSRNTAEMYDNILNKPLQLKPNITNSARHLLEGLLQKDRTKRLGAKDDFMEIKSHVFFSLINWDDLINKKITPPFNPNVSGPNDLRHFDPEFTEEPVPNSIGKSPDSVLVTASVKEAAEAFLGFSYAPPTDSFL
The experiment in a line: Inhibition of human SGK1 using KGSGSGRPRTSSFAEG as substrate at 1 uM in presence of 32P-ATP by Hotspot assay relative to control; values are per cent of control.

The target in assay [5] is T3, Dual serine/threonine and tyrosine protein kinase (Homo sapiens) (UniProt Q6XUX3).
T3 sequence (whole entry): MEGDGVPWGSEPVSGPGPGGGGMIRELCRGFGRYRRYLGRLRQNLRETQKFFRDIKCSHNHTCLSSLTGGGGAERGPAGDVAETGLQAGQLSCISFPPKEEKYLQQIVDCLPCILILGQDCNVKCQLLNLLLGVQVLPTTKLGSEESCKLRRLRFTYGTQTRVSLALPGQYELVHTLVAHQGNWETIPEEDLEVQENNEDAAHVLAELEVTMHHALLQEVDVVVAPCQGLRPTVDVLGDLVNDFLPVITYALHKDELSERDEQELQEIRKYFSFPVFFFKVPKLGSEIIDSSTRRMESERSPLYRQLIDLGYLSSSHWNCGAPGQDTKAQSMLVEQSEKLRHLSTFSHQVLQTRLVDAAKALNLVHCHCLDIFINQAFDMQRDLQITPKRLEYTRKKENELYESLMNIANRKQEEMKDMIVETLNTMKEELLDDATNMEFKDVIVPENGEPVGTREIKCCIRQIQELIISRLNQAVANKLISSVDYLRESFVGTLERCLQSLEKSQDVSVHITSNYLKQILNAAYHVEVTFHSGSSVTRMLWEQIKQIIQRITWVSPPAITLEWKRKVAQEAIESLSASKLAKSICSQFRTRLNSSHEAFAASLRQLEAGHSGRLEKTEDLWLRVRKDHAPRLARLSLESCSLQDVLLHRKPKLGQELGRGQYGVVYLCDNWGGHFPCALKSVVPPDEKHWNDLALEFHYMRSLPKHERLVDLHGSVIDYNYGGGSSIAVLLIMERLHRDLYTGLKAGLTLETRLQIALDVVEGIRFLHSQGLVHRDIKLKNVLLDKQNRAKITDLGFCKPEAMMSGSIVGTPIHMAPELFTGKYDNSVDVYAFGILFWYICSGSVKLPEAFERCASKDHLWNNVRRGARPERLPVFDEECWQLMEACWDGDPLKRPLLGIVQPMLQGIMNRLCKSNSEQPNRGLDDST
Description: Inhibition of human RIPK5 using myelin basic protein as substrate at 1 uM in presence of 32P-ATP by Hotspot assay relative to control; values are per cent of control.

The target of assay [6] is ALK tyrosine kinase receptor (Homo sapiens) (UniProt Q9UM73). The experiment in a line: Inhibition of human ALK using poly[Glu:Tyr] (4:1) as substrate at 1 uM in presence of 32P-ATP by Hotspot assay relative to control; values are per cent of control.
Sequence of ALK tyrosine kinase receptor (Homo sapiens) (Q9UM73 19-1620 limits assumed): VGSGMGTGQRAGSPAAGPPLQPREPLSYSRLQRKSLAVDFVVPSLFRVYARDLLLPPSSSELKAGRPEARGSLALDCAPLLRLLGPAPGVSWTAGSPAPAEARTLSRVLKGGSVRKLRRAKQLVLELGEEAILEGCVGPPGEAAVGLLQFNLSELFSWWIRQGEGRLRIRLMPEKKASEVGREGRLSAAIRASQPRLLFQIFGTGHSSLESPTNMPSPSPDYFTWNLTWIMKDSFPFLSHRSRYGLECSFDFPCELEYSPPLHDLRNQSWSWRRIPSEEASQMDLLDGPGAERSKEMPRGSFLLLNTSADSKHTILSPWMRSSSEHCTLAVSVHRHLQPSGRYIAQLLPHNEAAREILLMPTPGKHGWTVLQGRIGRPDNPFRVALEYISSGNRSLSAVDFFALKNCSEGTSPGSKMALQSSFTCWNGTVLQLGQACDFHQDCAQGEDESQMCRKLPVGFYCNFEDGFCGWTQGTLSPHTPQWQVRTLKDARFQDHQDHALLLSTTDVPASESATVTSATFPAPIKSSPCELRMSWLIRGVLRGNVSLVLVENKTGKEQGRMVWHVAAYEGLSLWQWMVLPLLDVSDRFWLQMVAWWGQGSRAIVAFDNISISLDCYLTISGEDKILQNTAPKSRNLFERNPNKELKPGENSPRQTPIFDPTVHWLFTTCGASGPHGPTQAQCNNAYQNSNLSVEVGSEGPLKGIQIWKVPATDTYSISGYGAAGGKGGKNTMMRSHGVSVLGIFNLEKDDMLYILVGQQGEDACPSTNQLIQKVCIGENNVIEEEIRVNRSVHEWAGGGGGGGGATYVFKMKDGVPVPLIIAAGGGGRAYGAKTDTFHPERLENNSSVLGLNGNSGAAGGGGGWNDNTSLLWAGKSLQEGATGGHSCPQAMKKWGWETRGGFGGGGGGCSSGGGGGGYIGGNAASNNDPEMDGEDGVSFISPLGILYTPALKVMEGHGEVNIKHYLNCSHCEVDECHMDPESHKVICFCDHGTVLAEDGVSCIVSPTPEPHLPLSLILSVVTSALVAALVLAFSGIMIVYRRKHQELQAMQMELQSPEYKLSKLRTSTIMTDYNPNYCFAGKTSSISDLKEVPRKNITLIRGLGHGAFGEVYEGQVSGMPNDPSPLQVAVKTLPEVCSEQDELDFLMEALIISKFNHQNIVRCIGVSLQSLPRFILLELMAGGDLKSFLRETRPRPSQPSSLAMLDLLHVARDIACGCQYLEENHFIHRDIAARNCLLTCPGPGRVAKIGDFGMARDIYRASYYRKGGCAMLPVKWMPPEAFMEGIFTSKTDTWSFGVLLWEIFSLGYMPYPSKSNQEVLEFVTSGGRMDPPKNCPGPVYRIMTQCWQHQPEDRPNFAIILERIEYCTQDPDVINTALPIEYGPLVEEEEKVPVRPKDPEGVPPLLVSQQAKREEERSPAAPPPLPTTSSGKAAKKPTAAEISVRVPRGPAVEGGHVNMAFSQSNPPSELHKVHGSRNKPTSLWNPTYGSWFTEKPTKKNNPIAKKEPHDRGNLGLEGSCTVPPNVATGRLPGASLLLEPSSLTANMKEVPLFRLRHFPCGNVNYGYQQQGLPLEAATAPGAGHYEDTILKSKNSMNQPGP
The target of assay [7] is Dual specificity tyrosine-phosphorylation-regulated kinase 1A (Homo sapiens) (UniProt Q13627). The experiment in a line: Residual activity of human DYRK1/DYRK1A using RRRFRPASPLRGPPK as substrate at 1 uM in presence of 32P-ATP by Hotspot assay relative to control.
Assay [8] concerns the target Serine/threonine-protein kinase 24 (Homo sapiens) (UniProt Q9Y6E0). The experiment in a line: Inhibition of human MST3/STK24 using myelin basic protein as substrate at 1 uM in presence of 32P-ATP by Hotspot assay relative to control; values are per cent of control.
In assay [9] the target is Mitogen-activated protein kinase kinase kinase 8 (Homo sapiens) (UniProt P41279). The experiment in a line: Inhibition of human COT1/MAP3K8 using MEK1 (K97R) as substrate at 1 uM in presence of 32P-ATP by Hotspot assay relative to control; values are per cent of control.
Sequence of Mitogen-activated protein kinase kinase kinase 8 (Homo sapiens) (P41279 whole entry): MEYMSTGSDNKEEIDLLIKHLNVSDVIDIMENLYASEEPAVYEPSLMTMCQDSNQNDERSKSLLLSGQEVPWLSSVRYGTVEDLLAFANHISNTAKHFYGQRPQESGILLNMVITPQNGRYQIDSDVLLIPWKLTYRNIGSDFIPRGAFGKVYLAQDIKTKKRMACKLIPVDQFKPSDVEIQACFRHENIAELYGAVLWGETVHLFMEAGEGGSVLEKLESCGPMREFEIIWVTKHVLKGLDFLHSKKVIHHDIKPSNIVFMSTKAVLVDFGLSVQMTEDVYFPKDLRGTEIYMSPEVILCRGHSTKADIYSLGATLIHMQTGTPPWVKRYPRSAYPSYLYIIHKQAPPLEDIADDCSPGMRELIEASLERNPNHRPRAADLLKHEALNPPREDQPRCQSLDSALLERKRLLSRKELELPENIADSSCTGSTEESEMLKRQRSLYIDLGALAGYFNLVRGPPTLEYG

Calls of active or inactive are those of the source. No cut-off for these calls is given here.

Sequence of Calcium/calmodulin-dependent protein kinase type 1G (Homo sapiens) (Q96NX5 whole entry): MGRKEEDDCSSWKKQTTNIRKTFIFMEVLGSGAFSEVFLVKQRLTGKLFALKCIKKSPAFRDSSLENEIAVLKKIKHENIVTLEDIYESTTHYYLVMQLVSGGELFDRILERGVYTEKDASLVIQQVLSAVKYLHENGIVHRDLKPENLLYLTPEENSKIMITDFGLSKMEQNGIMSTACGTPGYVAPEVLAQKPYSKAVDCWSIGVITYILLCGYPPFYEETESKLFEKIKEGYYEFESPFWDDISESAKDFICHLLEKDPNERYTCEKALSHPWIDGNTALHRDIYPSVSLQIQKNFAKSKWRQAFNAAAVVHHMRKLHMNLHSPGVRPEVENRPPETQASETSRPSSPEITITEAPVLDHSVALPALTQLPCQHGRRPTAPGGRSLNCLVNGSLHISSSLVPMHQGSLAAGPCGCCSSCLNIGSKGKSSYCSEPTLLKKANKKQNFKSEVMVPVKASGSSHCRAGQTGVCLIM
Sequence of Serine/threonine-protein kinase 24 (Homo sapiens) (Q9Y6E0 whole entry, looked up): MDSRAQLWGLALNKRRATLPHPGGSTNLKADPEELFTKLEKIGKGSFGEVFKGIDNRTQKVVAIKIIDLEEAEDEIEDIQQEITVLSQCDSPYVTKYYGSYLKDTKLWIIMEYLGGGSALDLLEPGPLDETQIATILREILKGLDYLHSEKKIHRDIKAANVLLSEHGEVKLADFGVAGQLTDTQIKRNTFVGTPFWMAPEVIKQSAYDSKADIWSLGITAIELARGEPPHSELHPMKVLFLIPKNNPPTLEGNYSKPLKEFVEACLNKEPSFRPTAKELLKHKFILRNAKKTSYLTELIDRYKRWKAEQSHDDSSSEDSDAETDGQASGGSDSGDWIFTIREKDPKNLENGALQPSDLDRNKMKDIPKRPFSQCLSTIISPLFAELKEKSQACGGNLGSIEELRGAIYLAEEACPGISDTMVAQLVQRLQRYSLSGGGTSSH

For `CC(C)S(=O)(=O)c1ccc2nccc(Nc3ccc4scnc4c3)c2c1`, the residual activity in [1] was 85.6%; in assay [2], 103%; in assay [3], 102%; in assay [4], 95.7%; in [5], 106%; in assay [6], 90.8%. Besides, the residual activity worked out at 98.8% in assay [7], 100% in assay [8] and 85.2% in [9]. The inhibition entry in the assay with Neutrophil was “Active”.
Turning to `CNC(=O)c1ccc2c(c1)ncn2-c1ccc(CC(=O)OC(C)(C)C)cc1`, the residual activity in [1] came out at 94.2%; in assay [2], 102%; in assay [3], 98.9%; in assay [4] it was 94.2%; in [5] it was 95.6%; in [6] it was 101%. Further, the residual activity in assay [7] was 99.4%; in assay [8] it was 94%; in [9], 108%. For the same molecule, the inhibition entry with Neutrophil was “Active”.
For the molecule `Cc1cc(-c2cnc(N)c3c(-c4ccc5scnc5c4)csc23)n(C)n1`, the residual activity in [1] is 90.9%; in [2] it was 99%; in [3], 97.2%; in assay [4] it was 94.2%; in assay [5] it was 101%; in [6], 96.6%. Besides, the figures for the residual activity in assay [7], in assay [8] and in [9] were 99.6%, 93.9% and 106%, respectively. Besides, the inhibition result in the assay on Neutrophil is “Active”.
